{"source": "ChEMBL document CHEMBL1201862", "about": "“PubChem BioAssay data set” (2004)", "experiment_in_all_cases": "growth of human tumour cells (NCI), 48 h", "key": {"[1]": {"system": "SN12C"}, "[2]": {"system": "NCI-H522"}, "[3]": {"system": "HCT-116"}, "[4]": {"system": "NCI-H226"}, "[5]": {"system": "HT-29"}, "[6]": {"system": "OVCAR-3"}, "[7]": {"system": "SNB-19"}, "[8]": {"system": "Malme-3M"}, "[9]": {"system": "SK-OV-3"}, "[10]": {"system": "SF-295"}, "[11]": {"system": "COLO 205"}, "[12]": {"system": "HOP-92"}, "[13]": {"system": "KM-20L2"}, "[14]": {"system": "M14"}, "[15]": {"system": "DMS-273"}, "[16]": {"system": "HL-60"}, "[17]": {"system": "NCI-H460"}, "[18]": {"system": "IGROV-1"}, "[19]": {"system": "HCC 2998"}, "[20]": {"system": "A498"}, "[21]": {"system": "SW-620"}, "[22]": {"system": "UACC-62"}, "[23]": {"system": "XF498"}, "[24]": {"system": "TK-10"}, "[25]": {"system": "EKVX"}, "[26]": {"system": "HOP-18"}, "[27]": {"system": "SNB-75"}, "[28]": {"system": "CAKI-1"}, "[29]": {"system": "LOX IMVI"}, "[30]": {"system": "OVCAR-8"}, "[31]": {"system": "NCI-H23"}, "[32]": {"system": "K562"}, "[33]": {"system": "A549"}, "[34]": {"system": "HCT-15"}, "[35]": {"system": "DLD-1"}, "[36]": {"system": "KM12"}, "[37]": {"system": "U-251"}, "[38]": {"system": "OVCAR-5"}, "[39]": {"system": "RXF 631"}, "[40]": {"system": "UO-31"}, "[41]": {"system": "SK-MEL-28"}, "[42]": {"system": "RPMI-8226"}, "[43]": {"system": "DMS-114"}, "[44]": {"system": "SF-268"}, "[45]": {"system": "MOLT-4"}, "[46]": {"system": "UACC-257"}, "[47]": {"system": "M19-MEL"}, "[48]": {"system": "OVCAR-4"}, "[49]": {"system": "RXF 393"}, "[50]": {"system": "HOP-62"}, "[51]": {"system": "SNB-78"}, "[52]": {"system": "LXFL 529"}, "[53]": {"system": "CCRF-CEM"}, "[54]": {"system": "786-0"}, "[55]": {"system": "SR"}, "[56]": {"system": "ACHN"}, "[57]": {"system": "SK-MEL-2"}, "[58]": {"system": "SF-539"}, "[59]": {"system": "SK-MEL-5"}}, "note": "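Values below derive from 48-hour exposures of cells grown in 96-well plates, with endpoints linearly interpolated between the two concentrations bracketing the appropriate inhibition level. GI50 is the concentration that inhibits growth by half.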 Calls of active or inactive are those of the source. Cut-off read from the data, not from the text of the source: active = GI50 up to about 1.1 µM and inactive = higher."}
{"smiles": "O=C(Nc1cc(Cl)c(Cl)cc1Cl)C(=O)C(C(=O)c1ccccc1)C1OC(=O)c2ccccc21", "note": "(stereo unspecified)", "values": [{"measurement": "GI50", "setting": "[1]", "result": "> 100 µM (inactive)"}, {"measurement": "GI50", "setting": "[2]", "result": "> 100 µM (inactive)"}, {"measurement": "GI50", "setting": "[3]", "result": "> 100 µM (inactive)"}, {"measurement": "GI50", "setting": "[4]", "result": "> 100 µM (inactive)"}, {"measurement": "GI50", "setting": "[5]", "result": "> 100 µM (inactive)"}, {"measurement": "GI50", "setting": "[6]", "result": "> 100 µM (inactive)"}, {"measurement": "GI50", "setting": "[7]", "result": "> 100 µM (inactive)"}, {"measurement": "GI50", "setting": "[8]", "result": "> 100 µM (inactive)"}, {"measurement": "GI50", "setting": "[9]", "result": "> 100 µM (inactive)"}, {"measurement": "GI50", "setting": "[10]", "result": "> 100 µM (inactive)"}, {"measurement": "GI50", "setting": "[11]", "result": "> 100 µM (inactive)"}, {"measurement": "GI50", "setting": "[12]", "result": "> 100 µM (inactive)"}, {"measurement": "GI50", "setting": "[13]", "result": "> 100 µM (inactive)"}, {"measurement": "GI50", "setting": "[14]", "result": "> 100 µM (inactive)"}, {"measurement": "GI50", "setting": "[15]", "result": "> 100 µM (inactive)"}, {"measurement": "GI50", "setting": "[16]", "result": "> 100 µM (inactive)"}, {"measurement": "GI50", "setting": "[17]", "result": "> 100 µM (inactive)"}, {"measurement": "GI50", "setting": "[18]", "result": "> 100 µM (inactive)"}, {"measurement": "GI50", "setting": "[19]", "result": "> 100 µM (inactive)"}, {"measurement": "GI50", "setting": "[20]", "result": "> 100 µM (inactive)"}, {"measurement": "GI50", "setting": "[21]", "result": "> 100 µM (inactive)"}, {"measurement": "GI50", "setting": "[22]", "result": "> 100 µM (inactive)"}, {"measurement": "GI50", "setting": "[23]", "result": "> 100 µM (inactive)"}, {"measurement": "GI50", "setting": "[24]", "result": "> 100 µM (inactive)"}, {"measurement": "GI50", "setting": "[25]", "result": "> 100 µM (inactive)"}, {"measurement": "GI50", "setting": "[26]", "result": "38.3 µM (inactive)"}, {"measurement": "GI50", "setting": "[27]", "result": "17.9 µM (inactive)"}, {"measurement": "GI50", "setting": "[28]", "result": "> 100 µM (inactive)"}, {"measurement": "GI50", "setting": "[29]", "result": "> 100 µM (inactive)"}, {"measurement": "GI50", "setting": "[30]", "result": "> 100 µM (inactive)"}, {"measurement": "GI50", "setting": "[31]", "result": "> 100 µM (inactive)"}, {"measurement": "GI50", "setting": "[32]", "result": "> 100 µM (inactive)"}, {"measurement": "GI50", "setting": "[33]", "result": "> 100 µM (inactive)"}, {"measurement": "GI50", "setting": "[34]", "result": "> 100", "unit": "µM"}, {"measurement": "GI50", "setting": "[35]", "result": "> 100 µM (inactive)"}, {"measurement": "GI50", "setting": "[36]", "result": "> 100 µM (inactive)"}, {"measurement": "GI50", "setting": "[37]", "result": "> 100 µM (inactive)"}, {"measurement": "GI50", "setting": "[38]", "result": "> 100 µM (inactive)"}, {"measurement": "GI50", "setting": "[39]", "result": "> 100 µM (inactive)"}, {"measurement": "GI50", "setting": "[40]", "result": "> 100 µM (inactive)"}, {"measurement": "GI50", "setting": "[41]", "result": "> 100 µM (inactive)"}, {"measurement": "GI50", "setting": "[42]", "result": "> 100 µM (inactive)"}, {"measurement": "GI50", "setting": "[43]", "result": "> 100 µM (inactive)"}, {"measurement": "GI50", "setting": "[44]", "result": "> 100 µM (inactive)"}, {"measurement": "GI50", "setting": "[45]", "result": "> 100 µM (inactive)"}, {"measurement": "GI50", "setting": "[46]", "result": "> 100 µM (inactive)"}, {"measurement": "GI50", "setting": "[47]", "result": "> 100 µM (inactive)"}, {"measurement": "GI50", "setting": "[48]", "result": "> 100 µM (inactive)"}, {"measurement": "GI50", "setting": "[49]", "result": "> 100 µM (inactive)"}, {"measurement": "GI50", "setting": "[50]", "result": "> 100 µM (inactive)"}, {"measurement": "GI50", "setting": "[51]", "result": "> 100 µM (inactive)"}, {"measurement": "GI50", "setting": "[52]", "result": "> 100 µM (inactive)"}, {"measurement": "GI50", "setting": "[53]", "result": "> 100 µM (inactive)"}, {"measurement": "GI50", "setting": "[54]", "result": "> 100 µM (inactive)"}, {"measurement": "GI50", "setting": "[55]", "result": "97.7 µM (inactive)"}, {"measurement": "GI50", "setting": "[56]", "result": "> 100 µM (inactive)"}]}
{"smiles": "COC(=O)N/N=C(\\Cc1ccccc1)CN(C)C", "values": [{"measurement": "GI50", "setting": "[2]", "result": "> 100 µM (inactive)"}, {"measurement": "GI50", "setting": "[3]", "result": "> 100 µM (inactive)"}, {"measurement": "GI50", "setting": "[5]", "result": "> 100 µM (inactive)"}, {"measurement": "GI50", "setting": "[6]", "result": "> 100 µM (inactive)"}, {"measurement": "GI50", "setting": "[8]", "result": "> 100 µM (inactive)"}, {"measurement": "GI50", "setting": "[9]", "result": "> 100 µM (inactive)"}, {"measurement": "GI50", "setting": "[10]", "result": "> 100 µM (inactive)"}, {"measurement": "GI50", "setting": "[11]", "result": "> 100 µM (inactive)"}, {"measurement": "GI50", "setting": "[12]", "result": "> 100 µM (inactive)"}, {"measurement": "GI50", "setting": "[13]", "result": "> 100 µM (inactive)"}, {"measurement": "GI50", "setting": "[14]", "result": "> 100 µM (inactive)"}, {"measurement": "GI50", "setting": "[15]", "result": "> 100 µM (inactive)"}, {"measurement": "GI50", "setting": "[16]", "result": "> 100 µM (inactive)"}, {"measurement": "GI50", "setting": "[17]", "result": "> 100 µM (inactive)"}, {"measurement": "GI50", "setting": "[18]", "result": "> 100 µM (inactive)"}, {"measurement": "GI50", "setting": "[19]", "result": "> 100 µM (inactive)"}, {"measurement": "GI50", "setting": "[20]", "result": "> 100 µM (inactive)"}, {"measurement": "GI50", "setting": "[21]", "result": "> 100 µM (inactive)"}, {"measurement": "GI50", "setting": "[22]", "result": "> 100 µM (inactive)"}, {"measurement": "GI50", "setting": "[23]", "result": "> 100 µM (inactive)"}, {"measurement": "GI50", "setting": "[24]", "result": "> 100 µM (inactive)"}, {"measurement": "GI50", "setting": "[25]", "result": "> 100 µM (inactive)"}, {"measurement": "GI50", "setting": "[27]", "result": "> 100 µM (inactive)"}, {"measurement": "GI50", "setting": "[29]", "result": "> 100 µM (inactive)"}, {"measurement": "GI50", "setting": "[30]", "result": "> 100 µM (inactive)"}, {"measurement": "GI50", "setting": "[31]", "result": "> 100 µM (inactive)"}, {"measurement": "GI50", "setting": "[57]", "result": "> 100 µM (inactive)"}, {"measurement": "GI50", "setting": "[32]", "result": "> 100 µM (inactive)"}, {"measurement": "GI50", "setting": "[33]", "result": "> 100 µM (inactive)"}, {"measurement": "GI50", "setting": "[35]", "result": "> 100 µM (inactive)"}, {"measurement": "GI50", "setting": "[36]", "result": "> 100 µM (inactive)"}, {"measurement": "GI50", "setting": "[37]", "result": "> 100 µM (inactive)"}, {"measurement": "GI50", "setting": "[38]", "result": "> 100 µM (inactive)"}, {"measurement": "GI50", "setting": "[39]", "result": "> 100 µM (inactive)"}, {"measurement": "GI50", "setting": "[41]", "result": "> 100 µM (inactive)"}, {"measurement": "GI50", "setting": "[42]", "result": "> 100 µM (inactive)"}, {"measurement": "GI50", "setting": "[58]", "result": "> 100 µM (inactive)"}, {"measurement": "GI50", "setting": "[43]", "result": "> 100 µM (inactive)"}, {"measurement": "GI50", "setting": "[44]", "result": "> 100 µM (inactive)"}, {"measurement": "GI50", "setting": "[45]", "result": "> 100 µM (inactive)"}, {"measurement": "GI50", "setting": "[59]", "result": "> 100 µM (inactive)"}, {"measurement": "GI50", "setting": "[46]", "result": "> 100 µM (inactive)"}, {"measurement": "GI50", "setting": "[47]", "result": "> 100 µM (inactive)"}, {"measurement": "GI50", "setting": "[49]", "result": "> 100 µM (inactive)"}, {"measurement": "GI50", "setting": "[50]", "result": "> 100 µM (inactive)"}, {"measurement": "GI50", "setting": "[51]", "result": "> 100 µM (inactive)"}, {"measurement": "GI50", "setting": "[52]", "result": "> 100 µM (inactive)"}, {"measurement": "GI50", "setting": "[53]", "result": "> 100 µM (inactive)"}, {"measurement": "GI50", "setting": "[54]", "result": "> 100 µM (inactive)"}, {"measurement": "GI50", "setting": "[56]", "result": "> 100 µM (inactive)"}]}
